Test results from the NIST ThermoML archive (doi:10.1021/acs.jced.8b00699).
Numbers after ± are expanded uncertainties.

Conditions: Liquid, Closed cell (Static) method

Row | SMILES | vapor or sublimation pressure (273.66 K) [kPa] | vapor or sublimation pressure (278.15 K) [kPa] | vapor or sublimation pressure (283.15 K) [kPa] | vapor or sublimation pressure (288.15 K) [kPa] | vapor or sublimation pressure (293.15 K) [kPa] | vapor or sublimation pressure (298.15 K) [kPa] | vapor or sublimation pressure (303.16 K) [kPa] | vapor or sublimation pressure (308.18 K) [kPa] | vapor or sublimation pressure (238.15 K) [kPa] | vapor or sublimation pressure (243.15 K) [kPa] | vapor or sublimation pressure (248.15 K) [kPa] | vapor or sublimation pressure (253.15 K) [kPa] | vapor or sublimation pressure (258.15 K) [kPa] | vapor or sublimation pressure (263.15 K) [kPa] | vapor or sublimation pressure (268.15 K) [kPa] | vapor or sublimation pressure (273.15 K) [kPa] | vapor or sublimation pressure (278.16 K) [kPa] | vapor or sublimation pressure (273.65 K) [kPa] | vapor or sublimation pressure (303.15 K) [kPa] | vapor or sublimation pressure (308.15 K) [kPa]
1 | CCCCCCCCC#N [nonanenitrile] | 0.00148 ± 0.00013 | 0.00231 ± 0.00015 | 0.0037 ± 0.00018 | 0.00585 ± 0.00025 | 0.00907 ± 0.00037 | 0.01387 ± 0.00053 | 0.02079 ± 0.00064 | 0.03074 ± 0.00079 |  |  |  |  |  |  |  |  |  |  |  | 
2 | CCCCCCC#N [heptanenitrile] | 0.01723 ± 0.00058 |  | 0.03801 ± 0.00091 | 0.05634 ± 0.0012 | 0.0819 ± 0.0017 | 0.1175 ± 0.0023 | 0.1649 ± 0.0027 | 0.2302 ± 0.0035 | 0.00048 ± 0.00011 | 0.00085 ± 0.00012 | 0.00146 ± 0.00013 | 0.00246 ± 0.00015 | 0.00408 ± 0.00019 | 0.00662 ± 0.00028 | 0.01055 ± 0.00042 | 0.01647 ± 0.00057 | 0.02527 ± 0.00071 |  |  | 
3 | CCCCCCCC#N [octanenitrile] |  | 0.00758 ± 0.00031 | 0.01175 ± 0.00047 | 0.01796 ± 0.00059 | 0.02693 ± 0.00073 | 0.0398 ± 0.00094 |  |  | 0.00012 ± 0.00011 | 0.00021 ± 0.00011 | 0.00037 ± 0.00012 | 0.00064 ± 0.00012 | 0.00108 ± 0.00012 | 0.0018 ± 0.00014 | 0.00295 ± 0.00016 | 0.00476 ± 0.00021 |  | 0.00502 ± 0.00022 | 0.05793 ± 0.0013 | 0.08314 ± 0.0017
